From patent US20250136555A1 (HARBIN MEDISAN PHARMACEUTICAL CO., LTD., priority 2022, published 2025) come the findings set out here.

Like-named read-outs stand apart in the source and are kept apart here.

Common to all, as to assay type: cell-based
One test concerns the target T1, PPARγ (Homo sapiens, UniProt P37231).
T1 construct: expressed in transfected cells; host or cells: COS-7
T1 sequence (P37231 238-503 limits assumed): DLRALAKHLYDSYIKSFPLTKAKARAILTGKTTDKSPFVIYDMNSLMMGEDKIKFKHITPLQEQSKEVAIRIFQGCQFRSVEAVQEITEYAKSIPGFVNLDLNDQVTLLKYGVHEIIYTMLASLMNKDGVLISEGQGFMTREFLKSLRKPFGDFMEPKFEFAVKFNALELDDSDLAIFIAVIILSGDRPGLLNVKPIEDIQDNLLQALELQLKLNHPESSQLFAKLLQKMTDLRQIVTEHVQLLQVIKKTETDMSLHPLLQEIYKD
Kind of test: GAL4 hybrid reporter gene method, PPARγ agonistic activity.

A further test has as its target T2, PPARα (Homo sapiens, UniProt Q07869).
T2 construct: expressed in transfected cells; host or cells: COS-7
T2 sequence (Q07869 239-466 limits assumed): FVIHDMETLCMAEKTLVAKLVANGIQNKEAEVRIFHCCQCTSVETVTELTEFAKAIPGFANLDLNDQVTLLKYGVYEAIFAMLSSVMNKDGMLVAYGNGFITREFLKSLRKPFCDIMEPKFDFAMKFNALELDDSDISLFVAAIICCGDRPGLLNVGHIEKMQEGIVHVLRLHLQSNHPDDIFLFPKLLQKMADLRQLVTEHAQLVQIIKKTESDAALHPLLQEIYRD
Description: GAL4 hybrid reporter gene method, PPARα agonistic activity. The conditions noted are these: Cos-7 cells, Gal4-PPARα (LBD); GW7647 10 nM = 100%; 16 h. On the technique in general: Reporter assays use an easily measured gene product as a stand-in for the process of interest.

In a further test the target is T3, PPARδ (Homo sapiens, UniProt Q03181).
T3 construct: expressed in transfected cells; host or cells: COS-7
T3 sequence (Q03181 211-439 limits assumed): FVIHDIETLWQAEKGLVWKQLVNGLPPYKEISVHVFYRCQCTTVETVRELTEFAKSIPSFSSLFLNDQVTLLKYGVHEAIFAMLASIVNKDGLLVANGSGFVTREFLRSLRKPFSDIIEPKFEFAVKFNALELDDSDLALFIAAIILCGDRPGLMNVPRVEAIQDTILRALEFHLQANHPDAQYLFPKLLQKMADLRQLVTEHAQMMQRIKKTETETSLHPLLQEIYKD
Description: GAL4 hybrid reporter gene method, PPARδ agonistic activity.

The mark [1] stands for this setting: Cos-7 cells, Gal4-PPARδ (LBD), GW501516 10 nM = 100%, 16 h.
[2] abbreviates: Cos-7 cells, Gal4-PPARγ (LBD), Rosiglitazone 1 μM = 100%, 16 h.

One may read the EC50 as the concentration needed to bring the measured effect to its halfway point. High values mean a less potent agent, low ones a more potent agent.

Description for PPARα: (§1) Cos-7 cells (African green monkey kidney fibroblasts, commonly used tool cells) were cultured in a 10-cm cell culture dish with a DMEM complete medium containing 10% fetal bovine serum. When growing at a density of about 70%, the cells were ready for transfection. […] The working solution described above was then combined with 8 mL of the DMEM complete medium, and the mixture was added to the cell culture dish for cell transfection. After 4 h of transfection, the cells were digested, resuspended, and seeded into a 96-well plate at 25,000 cells/well. […] 10 μL of a reporter gene detection solution (purchased from Shanghai Beyotime Biological Tech. Co., Ltd.) was added. After the resulting solution was mixed and reacted, biological fluorescence was detected by using a multifunctional microplate reader, and corresponding half maximal effective concentration (EC50) values were calculated according to the detection values. […] Transfection working solutions for different nuclear receptors were prepared and added into COS-7 cells. The preparation method for the transfection working solution was as follows: the constructed pBIND-Gal4-PPARα (LBD) (or pBIND-Gal4-PPARδ (LBD) plasmid or pBIND-Gal4-PPARγ (LBD) plasmid or pBIND-Gal4-RARα (LBD) plasmid or pBIND-Gal4-RARγ (LBD) plasmid or pBIND-Gal4-RARβ (LBD) plasmid or pBIND-Gal4-RORα (LBD) plasmid or pBIND-Gal4-RORγ (LBD) plasmid or pBIND-Gal4-RORβ (LBD) plasmid or pBIND-Gal4-FXR (LBD) plasmid or pBIND-Gal4-RXRα.
Description for PPARγ: as §1
Description for PPARδ: as §1

Take `CC(C)(Oc1c(F)cc(CN2C(=O)CN(c3ccc(C(F)(F)F)cc3)C2=O)cc1Cl)C(=O)O` [Compound 47, 2-(2-Chloro-4-((2,5-dioxo-3-(4-(trifluoromethyl)phenyl)imidazolin-1-yl)methyl)-6-fluorophenoxy)-2-methylpropionic Acid]: the values for the EC50 at PPARγ, at PPARα and on PPARδ were greater than 5000 nM, 9.9 nM and 19 nM, respectively.
Regarding `Cc1cc(CN2C(=O)CN(c3ccc(C(F)(F)F)cc3)C2=O)cc(C)c1OCC(=O)O` [Compound 53, 2-(4-((2,5-Dioxo-3-(4-(trifluoromethyl)phenyl)imidazolin-1-yl)methyl)-2,6-dimethylphenoxy)acetic Acid], the EC50 at PPARγ is greater than 5000 nM; at PPARα it was 325 nM; on PPARδ (setting [1]), 175 nM.
As for `Cc1cc(CN2C(=O)CN(c3ccc(C(F)(F)F)cc3)C2=O)cc(Cl)c1OC(C)(C)C(=O)O` [Compound 13, 2-(2-Chloro-4-((2,5-dioxo-3-(4-(trifluoromethyl)phenyl)imidazolidin-1-yl)methyl)-6-methylphenoxy)-2-methylpropionic Acid], the EC50 at PPARγ came out at 1290 nM; at PPARα it was 1.2 nM; on PPARδ, 10.8 nM.
`Cc1cc(CN2C(=O)CN(c3ccc(C(F)(F)F)c(Cl)c3)C2=O)cc(C)c1OC(C)(C)C(=O)O` [Compound 33, 2-(2,6-Dimethyl-4-((3-(3-chloro-4-(trifluoromethyl)phenyl)-2,5-dioxoimidazolin-1-yl)methyl)phenoxy)-2-methylpropionic Acid] had an EC50 at PPARγ (setting [2]) of 657 nM. In addition, on PPARα, a half-maximal effect (EC50) was put at 1 nM and the “PPARα EC50 (nM)” value is “low nanomolar levels”. Also, at PPARδ (setting [1]), it took 1.7 nM to reach a half-maximal effect (EC50) and the “PPARδ EC50 (nM)” value was “low nanomolar levels”.
With `Cc1cc(CCCN2CC(=O)N(c3ccc(C(F)(F)F)cc3)C2=O)cc(C)c1OC(C)(C)C(=O)O` [Compound 91, 2-(4-(3-(2,4-Dioxo-3-(4-(trifluoromethyl)phenyl)imidazolidin-1-yl)propyl)-2,6-dimethylphenoxy)-2-methylpropionic Acid], the EC50 amounted to 2690 nM at PPARγ, 38 nM at PPARα and 632 nM on PPARδ.
Turning to `Cc1cc(CN2C(=O)CN(c3ccc(C#N)cc3)C2=O)cc(C)c1OC(C)(C)C(=O)O` [Compound 37, 2-(4-((3-(4-Cyanobenzene)-2,5-dioxoimidazolin-1-yl)methyl)-2,6-dimethylphenoxy)-2-methylpropionic Acid], the EC50 worked out at 4060 nM on PPARγ (setting [2]), 98.1 nM on PPARα and 84.4 nM at PPARδ (setting [1]).
As to `CC(C)(Oc1ccc(CN2C(=O)CN(c3ccc(C(F)(F)F)cc3)C2=O)cc1Br)C(=O)O` [Compound 77, 2-(2-Bromo-4-((2,5-dioxo-3-(4-trifluoromethyl)phenyl)imidazolidin-1-yl)methylphenoxy)-2-methylpropionic Acid], the EC50 at PPARγ is 3190 nM; on PPARα, 74.1 nM; on PPARδ, 25.3 nM.
With `Cc1cc(CN2CC(=O)N(c3ccc(C(F)(F)F)cc3)C2=O)cc(C)c1OC(C)(C)C(=O)O` [Compound 81, 2-(4-((2,4-Dioxo-3-(4-(trifluoromethyl)phenyl)imidazolidin-1-yl)methyl)-2,6-dimethylphenoxy)-2-methylpropionic Acid], the figures for the EC50 on PPARγ, at PPARα and on PPARδ (setting [1]) were greater than 5000 nM, 165 nM and 82.1 nM, respectively.
In the case of `CC(C)(Oc1ccc(CN2C(=O)CN(c3ccc(C(F)(F)F)cc3)C2=O)cc1Cl)C(=O)O` [Compound 51, 2-(4-((2,5-Dioxo-3-(4-(trifluoromethyl)phenyl)imidazolin-1-yl)methyl)-2-chlorophenoxy)-2-methylpropionic Acid], the EC50 at PPARγ was greater than 5000 nM; on PPARα it was 89.9 nM; on PPARδ, 40.1 nM.
For `Cc1cc(CCCN2C(=O)CN(c3ccc(C(F)(F)F)cc3)C2=O)cc(C)c1OC(C)(C)C(=O)O` [Compound 89, 2-(4-(3-(2,5-Dioxo-3-(4-(trifluoromethyl)phenyl)imidazolidin-1-yl)propyl)-2,6-dimethylphenoxy)-2-methylpropionic Acid], the EC50 at PPARγ (setting [2]) worked out at 628 nM; at PPARα it was 67 nM; at PPARδ (setting [1]), 20.3 nM.
For the molecule `Cc1cc(CN2C(=O)CN(c3ccc(S(C)(=O)=O)cc3)C2=O)cc(C)c1OC(C)(C)C(=O)O` [Compound 71, 2-(2,6-Dimethyl-4-((3-(4-(methylsulfonyl)phenyl)-2,5-dioxoimidazolin-1-yl)methyl)phenoxy)-2-methylpropionic Acid], the results for the EC50 on PPARγ, on PPARα and on PPARδ were greater than 5000 nM, 1090 nM and greater than 5000 nM, respectively.
As for `Cc1cc(CCN2CC(=O)N(c3ccc(C(F)(F)F)cc3)C2=O)cc(C)c1OC(C)(C)C(=O)O` [Compound 87, 2-(4-(2-(2,4-Dioxo-3-(4-(trifluoromethyl)phenyl)imidazolin-1-yl)ethyl)-2,6-dimethylphenoxy)-2-methylpropionic Acid], the EC50 worked out at 3400 nM on PPARγ, 353 nM at PPARα and 352 nM on PPARδ.
On the same counts, the results for `CCOc1ccc(N2CC(=O)N(Cc3cc(C)c(OC(C)(C)C(=O)O)c(C)c3)C2=O)cc1` [Compound 95] are 1330 nM, 10.9 nM and 66.9 nM.
Take `Cc1cc(CN2C(=O)CN(c3cccc(Cl)c3)C2=O)cc(C)c1OC(C)(C)C(=O)O` [Compound 107]: the EC50 on PPARγ stood at 652 nM; on PPARα, 105 nM; on PPARδ, 47.5 nM.
In the case of `Cc1cc(CN2C(=O)CN(c3cccc(C(F)(F)F)c3)C2=O)cc(C)c1OC(C)(C)C(=O)O` [Compound 45, 2-(4-((2,5-Dioxo-3-(3-(trifluoromethyl)phenyl)imidazolin-1-yl)methyl)-2,6-dimethylphenoxy)-2-methylpropionic Acid], the midpoint of the response on PPARγ (setting [2]), the EC50, lay at 996 nM. Also, on PPARα, the midpoint of the response, the EC50, lay at 3.8 nM and the “PPARα EC50 (nM)” value is given as “low nanomolar levels”. In addition, at PPARδ (setting [1]), a half-maximal effect (EC50) was put at 5.9 nM and the “PPARδ EC50 (nM)” value is on record as “low nanomolar levels”.
As to `Cc1cc(CCN2C(=O)CN(c3ccc(C(F)(F)F)cc3)C2=O)cc(C)c1OC(C)(C)C(=O)O` [Compound 85, 2-(4-(2-(2,5-Dioxo-3-(4-(trifluoromethyl)phenyl)imidazolidin-1-yl)ethyl)-2,6-dimethylphenoxy)-2-methylpropionic Acid], the results for the EC50 at PPARγ, on PPARα and on PPARδ (setting [1]) were 2720 nM, 17.9 nM and 4.4 nM, respectively.
For the molecule `Cc1cc(N2CC(=O)N(Cc3cc(C)c(OC(C)(C)C(=O)O)c(C)c3)C2=O)ccc1C(F)(F)F` [Compound 29, 2-(2,6-Dimethyl-4-((3-(3-methyl-4-(trifluoromethyl)phenyl)-2,5-dioxoimidazolin-1-yl)methyl)phenoxy)-2-methylpropionic Acid], the half-maximal effective concentration (EC50) at PPARγ stood at 736 nM; on PPARα it was 1.4 nM; on PPARδ it was 1 nM. In addition, on PPARα, the “PPARα EC50 (nM)” value is recorded as “low nanomolar levels”. Moreover, at PPARδ (setting [1]), the “PPARδ EC50 (nM)” value was “low nanomolar levels”.
`CC(C)(Oc1ccc(CN2C(=O)CN(c3ccc(C(F)(F)F)cc3)C2=O)cc1OC(F)(F)F)C(=O)O` [Compound 55, 2-(4-((2,5-Dioxo-3-(4-(trifluoromethyl)phenyl)imidazolin-1-yl)methyl)-2-(trifluoromethoxy)phenoxy)-2-methylpropionic Acid]: the EC50 came out at 2960 nM at PPARγ, 82.1 nM at PPARα and 24 nM on PPARδ.
